Data: paper PMC4049391, “Cadmium exposure and sulfate limitation reveal differences in the transcriptional control of three sulfate transporter (Sultr1;2) genes in Brassica juncea” (BMC Plant Biology, 2014)

Target: T1, AtSultr2;1 (Arabidopsis thaliana, UniProt O04722)
T1 construct: gene SULTR2; full-length ORF from Arabidopsis root RNA in pESC-TRP (GAL10 promoter), expressed in Saccharomyces cerevisiae CP154-7A
T1 sequence (O04722 1-677): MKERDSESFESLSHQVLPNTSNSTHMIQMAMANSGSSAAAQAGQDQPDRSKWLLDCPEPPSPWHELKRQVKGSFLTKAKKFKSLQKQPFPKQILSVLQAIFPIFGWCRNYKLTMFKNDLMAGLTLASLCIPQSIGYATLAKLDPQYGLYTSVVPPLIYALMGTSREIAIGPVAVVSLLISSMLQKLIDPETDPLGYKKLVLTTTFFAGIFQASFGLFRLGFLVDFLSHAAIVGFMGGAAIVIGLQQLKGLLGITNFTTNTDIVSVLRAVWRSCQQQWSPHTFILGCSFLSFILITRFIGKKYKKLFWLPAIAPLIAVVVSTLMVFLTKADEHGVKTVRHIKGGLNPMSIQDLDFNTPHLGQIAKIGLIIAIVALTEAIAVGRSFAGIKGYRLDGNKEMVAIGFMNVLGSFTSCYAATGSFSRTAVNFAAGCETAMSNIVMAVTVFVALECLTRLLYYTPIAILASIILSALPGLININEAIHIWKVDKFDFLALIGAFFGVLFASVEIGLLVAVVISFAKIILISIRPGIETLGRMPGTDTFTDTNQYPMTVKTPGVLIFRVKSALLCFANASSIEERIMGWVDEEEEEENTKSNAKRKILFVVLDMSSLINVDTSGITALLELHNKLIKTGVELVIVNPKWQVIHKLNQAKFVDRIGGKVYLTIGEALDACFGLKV
Test: growth rate of complemented yeast versus sulfate, Michaelis-Menten fit
Assay type: cell-based
Conditions: growth constant as estimate of apparent Km; sulfate 0-3 mM as sole sulfur source, 28°C; yeast CP154-7A

Compound: O=S(=O)(O)O [sulfate]
- kG: Estimation of the growth constant (kG) for sulfate
